The numbers were not newly measured in US20060188492A1, “Topical management of ocular and periocular conditions” (ChronoRX LLC, an Alaska Limited Liability Company, priority 2005, published 2006), which cites them from elsewhere.

The subject of data set [1] is lens. Conditions: experimental evidence; compared with the R isomer.
The subject of data set [2] is bovine aortic endothelial cells. Conditions: LA added before endothelial exposure to AGE albumin.
The conditions of data set [3]: in the presence of glutathione (GSH).

The structures appear in SMILES notation.

With `O=C(O)CCCCC1CCSS1` (racemic) [racemic mixture, 1,2-dithiolane-3-pentanoic acid], the “prevention of cataract development” value in data set [1] is “less than one-half as effective as the R isomer”.

With `O=C(O)CCCCC1CCSS1` (single isomer, unassigned) [S isomer, 1,2-dithiolane-3-pentanoic acid], the “prevention of cataract development” value in data set [1] is listed as “not effective”.

For `O=C(O)CCCCC1CCSS1` (centres unmarked) [LA, 1,2-dithiolane-3-pentanoic acid], in data set [2], the “depletion of GSH and ascorbic acid” value was “completely prevents depletion of GSH and ascorbic acid”.

As to `O=C(O)CCCCC1CCSS1` (stereo not drawn) [R stereoisomer of LA, 1,2-dithiolane-3-pentanoic acid], the “prevention of cataract development” value in data set [1] is given as “can prevent cataract development”.

`C[C@]12CC[C@@H]3c4ccc(O)cc4CC[C@H]3[C@@H]1CC[C@H]2O` [estradiol, 17 α-estradiol]: the “increase of neuroprotective potency” value in data set [3] is recorded as 400 fold.
